Measurements as given in patent US4000293A, “Method of inhibiting bacterial growth with certain selected 3-chloro-2-oxazolidinones” (Interx Research Corporation, priority 1975, dated 1976).
Where two headings read alike, the source gives them in different places. Each block holds one molecule with its values, some of them ahead of it.

Assays:
[1] = tested on: Staphylococcus aureus ATCC 6538; assay: germicidal efficiency test (modified serial dilution; time to complete sterilization), Table A; type: cell-based; details: pH 7.0
Method: The compounds are thus useful as bactericidal agents.
(§1) The compounds of the invention and certain reference compounds were tested in the germidical efficiency test, a modification of the standard serial dilution test, against Staphylococcus aureus ATCC 6538. In the germicidal efficiency test, instead of determining the minimum inhibitory concentration as in the serial dilution test procedure, the time required to effect complete sterilization of the micro-organism when exposed to a given concentration of the test substance is determined. This procedure affords a basis of comparison of the time dependent efficacies of the various test substances which gives a measure not only of the germidical efficacy of the test species but, since as will be seen germicidal efficiency of the N-chloro compounds generally tends to diminish with time, apparently owing to decomposition of, and therefore dilution of, the active species, the test procedure also provides an indication of the efficacy to be expected at varying time intervals after solution of the test species in the application medium. The test procedure is described as follows: A stock solution of known concentration of each compound to be tested was prepared in 0.1M sodium dihydrogen phosphate buffered to pH 7.0. To 5 ml. of the test solution was added 0.2 ml. of an overnight broth culture containing from 6×10^6 to 8×10^6 organisms/ml. of Staphylococcus aureus ATCC 6538 and 5 g. of gelysate peptone and 3 g. of beef extract per 1000 ml. of water. At time intervals of 0.5, 1, 2, 3, 4, 5, 6, 7, 8, 9, 10, 15 and 30 minutes, a loop of this suspension was subcultured into 5 ml. of sterile nutrient broth (5 g. of gelysate peptone and 3 g. of beef extract/1000 ml. of water), and the samples were incubated at 37° C. for 7 days with daily observation for evidence of bacterial growth. The time interval in which no bacterial growth was observed after the incubation period in a particular sample was recorded as the end point.
(§2) The germicidal kill times so-obtained at various concentrations of the compounds of the invention and of certain reference compounds are given in Table A below. The compounds are identified in each case by the Example number above where the compounds are described. Here and elsewhere in the specification that follows, concentrations are expressed in parts per million (ppm) of "positive" chlorine, which was determined in each instance by addition of excess aqueous potassium iodide to an acidified solution of the test compound and titration of the iodine liberated with standard sodium thiosulfate solution.

[2] = tested on: Staphylococcus aureus ATCC 6538; assay: contact germicidal (bactericidal) time before and after 14 day incubation of solutions at 40° C., Table B; type: cell-based; details: pH 7.0; for Bc Time, final: after 14 day incubation at 40° C.; for Bc Time, initial: before incubation, at initial ppm +Cl of the same line; for bactericidal activity after the test period (in words): after 14 days at 40° C.
Method: as §1
(§3) The stabilities and the time-dependent efficacies of the claimed and reference species were determined by comparing the contact germicidal times and the initial and final concentrations of positive chlorine in solutions of the test species in 0.1M sodium dihydrogen phosphate buffered to pH 7.0 before and after 14 day incubation of the solutions at 40° C. The results are given in Table B below, where the columns headed "Bc Time" refers to the bactericidal time in minutes.

[3] = positive chlorine concentration before and after 14 day incubation of solutions at pH 7.0, 40° C., Table B; type: physicochemical; details: for Final Concn. of positive chlorine: after 14 day incubation at 40° C.; for Final Concn. of positive chlorine / Initial Concn. of positive chlorine: 0.1M phosphate pH 7.0; for Initial Concn. of positive chlorine: before incubation; for decomposition over the test period (in words): 14 days, 40° C., pH 7.0
Method: as §2, §3

[4] = hydrolytic stability in 0.1M sodium dihydrogen phosphate pH 7.0 at 40° (first-order kinetics), Table C; type: physicochemical; details: for half-life: 0.1m phosphate buffer; for half-life / Rate Constant k: hydrolysis, 0.1M phosphate pH 7.0, 40°; for Rate Constant k: first-order
Method: A further measure of the relative stabilities of the reference and claimed species was obtained by measuring the hydrolytic stability of the various species in 0.1M sodium dihydrogen phosphate buffered to pH 7.0 at 40°. For each species, the rate of change in the concentration of positive chlorine in the solution was measured by the volume of standard thiosulfate required to titrate a series of aliquots of a standard volume of the solution at various time intervals using potassium iodide/sodium thiosulfate as detailed above. The volumes of thiosulfate required to titrate each sample so obtained were interpreted as first-order kinetic processes. The hydrolytic stabilities of the reference and claimed species under the experimental conditions were characterized by the reaction rate constants and half-lives obtained from a linear regression analysis of the experimental data. The results obtained are given in Table C below and are also shown in FIG. 1 where the volumes in milliliters of standard thiosulfate required to titrate the positive chlorine in the various samples are plotted as ordinate against time in days as abscissa.

[5] = stability in the neat state (% chlorine by iodometric titration), Table D; type: physicochemical
Method: In those instances, the data were acquired at ambient temperature (approximately 23° C.). The method used was similar to that described above in which the rate of disappearance of "positive" chlorine was followed iodometrically by titration of iodine liberated from added potassium iodide with standard sodium thiosulfate solution. Samples of the compounds were individually sealed in ampoules and stored in the dark at 23° C. or 40° C. and weighed amounts removed from time to time for analysis.
For each of the compounds analyzed as indicated above, percent chlorine was plotted as ordinate against time in days as abscissa on semi-logarithmic paper and the points connected by a smooth curve for each compound.

SMILES: O=C1OCCN1Cl [Example 1A, 3-chloro-2-oxazolidinone]
Bactericidal Time ([1]; 157 ppm +Cl): 7 min | Bactericidal Time ([1]; 281 ppm +Cl): 2 min | Bactericidal Time ([1]; 465 ppm +Cl): 1 min | Bc Time, final [2]: > 30 min | Bc Time, initial [2]: 1 min | Final Concn. of positive chlorine [3]: 30 ppm +Cl | Initial Concn. of positive chlorine [3]: 465 ppm +Cl | half-life [4]: 45 h | Rate Constant k [4]: 0.0155 h⁻¹ | % Cl, neat ([5]; 40° C., 0 Hrs.): 28.9% | % Cl, neat ([5]; 40° C., 2 Hrs.): 27.4% | % Cl, neat ([5]; 40° C., 18.5 Hrs.): 25.9% | % Cl, neat ([5]; 40° C., 24 Hrs.): 26.9% | % Cl, neat ([5]; 40° C., 54 Hrs.): 27.2% | % Cl, neat ([5]; 40° C., 72 Hrs.): 24.8% | % Cl, neat ([5]; 40° C., 80 Hrs.): 23.5% | % Cl, neat ([5]; 40° C., 98 Hrs.): 26.2% | % Cl, neat ([5]; 40° C., 144 Hrs.): 8.7% | % Cl, neat ([5]; 40° C., 168 Hrs.): 0.4%

SMILES: CC1COC(=O)N1Cl (stereo not shown) [Example 1B, 3-Chloro-4-methyl-2-oxazolidinone]
Bactericidal Time ([1]; 131 ppm +Cl): 7 min | Bactericidal Time ([1]; 303 ppm +Cl): 4 min | Bactericidal Time ([1]; 610 ppm +Cl): 1 min | Bc Time, final [2]: > 30 min | Bc Time, initial [2]: 1 min | Final Concn. of positive chlorine [3]: 14 ppm +Cl | Initial Concn. of positive chlorine [3]: 610 ppm +Cl | half-life [4]: 10.9 h | Rate Constant k [4]: 0.0633 h⁻¹ | % Cl, neat ([5]; 23° C., 0 Hrs.): 26.5% | % Cl, neat ([5]; 23° C., 3 Hrs.): 25.9% | % Cl, neat ([5]; 23° C., 5 Hrs.): 25.3% | % Cl, neat ([5]; 23° C., 6.5 Hrs.): 25.0% | % Cl, neat ([5]; 23° C., 9 Hrs.): 25.0% | % Cl, neat ([5]; 23° C., 10.5 Hrs.): 24.1% | % Cl, neat ([5]; 23° C., 21.5 Hrs.): 21.7% | % Cl, neat ([5]; 23° C., 24.5 Hrs.): 21.1% | % Cl, neat ([5]; 23° C., 29 Hrs.): 14.4% | % Cl, neat ([5]; 23° C., 30 Hrs.): 12.4% | % Cl, neat ([5]; 23° C., 32 Hrs.): 6.1% | % Cl, neat ([5]; 23° C., 35 Hrs.): 2.0% | % Cl, neat ([5]; 23° C., 45 Hrs.): 0%

SMILES: CC1OC(=O)N(Cl)C1C (stereo not shown) [Example 1C, 3-Chloro-4,5-dimethyl-2-oxazolidinone]
Bactericidal Time ([1]; 117 ppm +Cl): 10 min | Bactericidal Time ([1]; 295 ppm +Cl): 5 min | Bactericidal Time ([1]; 490 ppm +Cl): 4 min | Bc Time, initial [2]: 4 min | Final Concn. of positive chlorine [3]: 51 ppm +Cl | Initial Concn. of positive chlorine [3]: 490 ppm +Cl | half-life [4]: 38.5 h | Rate Constant k [4]: 0.018 h⁻¹ | % Cl, neat ([5]; 23° C., 0 Hrs.): 21.8% | % Cl, neat ([5]; 23° C., 3 Hrs.): 20.8% | % Cl, neat ([5]; 23° C., 5 Hrs.): 8.2% | % Cl, neat ([5]; 23° C., 7.5 Hrs.): 0.47% | % Cl, neat ([5]; 23° C., 24 Hrs.): 0.17%

SMILES: CC1CN(Cl)C(=O)O1 (stereo not shown) [Example 1D, 3-Chloro-5-methyl-2-oxazolidinone]
Bactericidal Time ([1]; 74 ppm +Cl): > 30 min | Bactericidal Time ([1]; 383 ppm +Cl): 2 min | Bactericidal Time ([1]; 548 ppm +Cl): 0.5 min | Bc Time, final [2]: > 30 min | Bc Time, initial [2]: 0.5 min | Final Concn. of positive chlorine [3]: 34 ppm +Cl | Initial Concn. of positive chlorine [3]: 548 ppm +Cl

SMILES: CCC1CN(Cl)C(=O)O1 (stereo not shown) [Example 1E, 3-Chloro-5-ethyl-2-oxazolidinone]
Bactericidal Time ([1]; 96 ppm +Cl): 6 min | Bactericidal Time ([1]; 161 ppm +Cl): 2 min | Bactericidal Time ([1]; 372 ppm +Cl): 3 min | Bactericidal Time ([1]; 535 ppm +Cl): 1 min | Bc Time, final [2]: > 30 min | Bc Time, initial [2]: 1 min | Final Concn. of positive chlorine [3]: 15 ppm +Cl | Initial Concn. of positive chlorine [3]: 535 ppm +Cl

SMILES: CC1(C)COC(=O)N1Cl [Example 1F, 3-Chloro-4,4-dimethyl-2-oxazolidinone]
Bactericidal Time ([1]; 148 ppm +Cl): 5 min | Bactericidal Time ([1]; 195 ppm +Cl): 5 min | Bactericidal Time ([1]; 368 ppm +Cl): 3 min | Bactericidal Time ([1]; 508 ppm +Cl): 2 min | Bc Time, final [2]: 2 min | bactericidal activity after the test period (in words) [2]: retained the original level of bactericidal activity | Bc Time, initial [2]: 2 min | decomposition over the test period (in words) [3]: decomposed only slightly over the test period | Final Concn. of positive chlorine [3]: 527 ppm +Cl | Initial Concn. of positive chlorine [3]: 534 ppm +Cl | half-life [4]: 2040 h | Rate Constant k [4]: 0.00034 h⁻¹ | hydrolytic stability (in words) ([4]; pH 7.0, 40°): unusual stability | % Cl, neat ([5]; 40° C., 0 Days): 23.4% | % Cl, neat ([5]; 40° C., 1 Day): 23.0% | % Cl, neat ([5]; 40° C., 2 Days): 23.8% | % Cl, neat ([5]; 40° C., 7 Days): 23.5% | % Cl, neat ([5]; 40° C., 35 Days): 24.2% | % Cl, neat ([5]; 40° C., 49 Days): 23.3% | stability in the neat state (in words) ([5]; neat, 40° C.): surprising stability

Final Concn. of positive chlorine [3]: 553 ppm +Cl | Initial Concn. of positive chlorine [3]: 555 ppm +Cl | stability in the neat state (in words) [5]: surprising stability | % Cl, neat ([5]; 40° C., 0 Days): 21.7% | % Cl, neat ([5]; 40° C., 2 Days): 23.6% | % Cl, neat ([5]; 40° C., 5 Days): 21.1% | % Cl, neat ([5]; 40° C., 10 Days): 20.7% | % Cl, neat ([5]; 40° C., 14 Days): 21.0% | % Cl, neat ([5]; 40° C., 18 Days): 20.6% | % Cl, neat ([5]; 40° C., 25 Days): 18.2% | % Cl, neat ([5]; 40° C., 39 Days): 22.3% | % Cl, neat ([5]; 40° C., 53 Days): 20.2% | % Cl, neat ([5]; 40° C., 164 Days): 19.6%
SMILES: CCC1(C)COC(=O)N1Cl (stereo not shown) [Example 1H, 3-Chloro-4-ethyl-4-methyl-2-oxazolidinone]
Bc Time, final [2]: 3 min | bactericidal activity after the test period (in words) [2]: retained the original level of bactericidal activity | Bc Time, initial [2]: 3 min | decomposition over the test period (in words) [3]: decomposed only slightly over the test period
